# Test results reported in patent US8466089B2, “Pyrazole compounds, process for their production and herbicides containing them” (Ishihara Sangyo Kaisha, Ltd., priority 2008, dated 2013).
# Where two headings read alike, the source gives them in different places.
# Key:
# Assay type in all cases: in vivo
# [1] = tested on: velvetleaf (Abutilon theophrasti MEDIC.), guineagrass (Panicum maximum Jacq.), green foxtail (Setaria viridis L.); test: Test Example 4, foliar treatment, herbicidal effect versus Reference Compounds; details: 3.5 to 15 g/ha, 14th to 28th day after application, test written in present tense
# From the text: (§1) Upland field soil is put into a 1/1,000,000 hectare pot, and seeds of various plants are sown. When the respective plants reach predetermined leaf stage ((1) velvetleaf (Abutilon theophrasti MEDIC.), (2) guineagrass (Panicum maximum Jacq.), (3) green foxtail (Setaria viridis L.), and (4) corn (Zea mays L.), a wettable powder of compound No. 2-1 of the above-mentioned present invention, an emulsifiable concentrate of the following Reference Compound 1 and a wettable powder of the following Reference Compound 2, prepared in accordance with a conventional preparation method, are weighed so that the active ingredients become the prescribed amounts 3.5 to 15 g/ha, and diluted with water in an amount corresponding to 300 liter per 1 hectare (containing 0.5 vol % of an agricultural spreader (MSO concentrate, manufactured by Cognis Corporation). The spray solutions thus prepared are applied for foliar treatment by a small sprayer.
# corn (Zea mays L.) = test: Test Example 4, foliar treatment, safety to crop plants versus Reference Compounds; details: 3.5 to 15 g/ha, 14th to 28th day after application, test written in present tense
# From the text: as §1
# [2] = tested on: giant foxtail (Setaria faberi Herrm.); test: Test Example 5, foliar treatment versus Reference Compounds; details: 4.0 to 4.5 leaf stage, 20th day after application, read-out: Growth inhibition rate (%) (20th day after application) Giant foxtail
# [3] = tested on: sorgo (Sorghum bicolor Moench) (var.: Lucky Sorgo); test: Test Example 6, soil column downward movement, sorgo bioassay; details: 14th day after sowing
# Experimental: Soil (sterilized soil:sand=3:1) was packed (4 L) into a column (9.5 cm in diameter×40 cm in height, application area: 0.007 m^2), and tap water was dropped from above by a Peristaltic pump before application of the herbicide for the purpose of maintaining the soil moisture to be uniform. Then, 10 mL of a spray solution prepared so that each agent (Compound No. 2-1, the above Reference Compounds 1 and 2) would be at a concentration corresponding to 250 g/ha was dropwise applied by a pipette. After application, water was dropped again at a rate of 400 mL/hr for about 3 hours by means of a Peristaltic pump. After the dropping, the column was left to stand for 1 day, and then the column was vertically evenly divided and seeds of sorgo (Sorghum bicolor Moench) (var.: Lucky Sorgo) were sown in a row. On the 14th day after sowing, the state of growth of the plant was visually observed at 3 cm intervals from the application point of the agent, whereby the germination and the degree of growth were evaluated by a growth inhibition rate (%) of 0 (equivalent to the non-treated area) to 100% (complete kill) to obtain the results in Table 17.
# From the above results, the growth inhibition rates of Reference Compounds No. 1 and No. 2 are observed in depths deeper than that of Compound No. 2-1. […] Whereas, Compound No. 2-1 stayed at a shallow portion of soil (in a layer of from 0 to 9 cm).
compound,measurement,setting,value
"CCn1ncc(C(=O)c2ccc(S(C)(=O)=O)c(OCCOC)c2C)c1OC(C)OC(=O)OC (stereo not shown) [Compound No. 2-1, 1-(1-Ethyl-4-(3-(2-methoxyethoxy)-2-methyl-4-(methylsulfonyl)benzoyl)-1H-pyrazol-5-yloxy)ethyl methyl carbonate]",herbicidal effect as compared to Reference Compounds,[1],superior herbicidal effects
same,safety to crop plants as compared to Reference Compounds,corn (Zea mays L.),excellent safety to crop plants
same,inhibition at 3.5 g/ha,[2],83%
same,inhibition at 250 g/ha,"[3]; depth 0-3 cm, read-out: Growth inhibition rate (%) against sorgo, Depth (cm) from the applied surface 0-3",70%
same,inhibition at 250 g/ha,"[3]; depth 3-6 cm, read-out: Growth inhibition rate (%) against sorgo, Depth (cm) from the applied surface 3-6",19%
same,inhibition at 250 g/ha,"[3]; depth 6-9 cm, read-out: Growth inhibition rate (%) against sorgo, Depth (cm) from the applied surface 6-9",10%
same,inhibition at 250 g/ha,"[3]; depth 9-12 cm, read-out: Growth inhibition rate (%) against sorgo, Depth (cm) from the applied surface 9-12",5%
same,inhibition at 250 g/ha,"[3]; depth 12-15 cm, read-out: Growth inhibition rate (%) against sorgo, Depth (cm) from the applied surface 12-15",3%
same,inhibition at 250 g/ha,"[3]; depth 15-18 cm, read-out: Growth inhibition rate (%) against sorgo, Depth (cm) from the applied surface 15-18",3%
same,inhibition at 250 g/ha,"[3]; depth 18-21 cm, read-out: Growth inhibition rate (%) against sorgo, Depth (cm) from the applied surface 18-21",2%
same,inhibition at 250 g/ha,"[3]; depth 21-24 cm, read-out: Growth inhibition rate (%) against sorgo, Depth (cm) from the applied surface 21-24",1%
same,inhibition at 250 g/ha,"[3]; depth 24-27 cm, read-out: Growth inhibition rate (%) against sorgo, Depth (cm) from the applied surface 24-27",0%
same,inhibition at 250 g/ha,"[3]; depth 27-30 cm, read-out: Growth inhibition rate (%) against sorgo, Depth (cm) from the applied surface 27-30",0%
